The subject of experiment [1] is TNF-α. Description: TNF-α mRNA in OHSC (RT-qPCR). As to conditions: 50 μM, 10 days. The experiment is classed as cell-based, mice. As to the method: FIG. 10. Plots illustrating the effect of Aftin-5 on relative mRNA expression levels of interleukin-1-beta (IL-1β; (A)), interleukin-6 (IL-6; (B)), TNF-alpha (TNFα; (C)) and interleukin-10 (IL-10; (D)) in organotypic hippocampal slice cultures (OHSC). OHSC culture media […] were replaced by incubation medium containing Aftin-5 (50 μM; A50) or vehicle (0.1% DMSO; Veh). 10 days later, total mRNA in lysate was isolated and purified, cDNAs were then synthesized from […] of total mRNA. cDNAs were amplified by quantitative RT-PCR and the relative expression of specific genes was normalized to the housekeeping gene HPRT1 (2^−ΔCt). Mann-Whitney tests were performed and ***p<0.001 indicates significant differences between Aftin-5 and control conditions. Data expressed as means+/−SEM from q=3 independent experiments with n=4-6 inserts/condition and 10 slices/insert. […]
The impact of Aftin-5 on gene expression of different biomarkers was determined by measuring mRNA levels of selected BDNF, CREB, PS95, INS Receptor/IGF-1 receptor, IL-1β, IL-6 in OHSC treated chronically with Aftin-5 or in a total brain from mice exposed to Aftin-5 at either 8 or 30 mg/Kg. […] Threshold cycles (Ct) of target gene and cyclophilin A (Ppia−control housekeeping gene) were recorded and gene expression was calculated as 2^−ΔΔCt(ΔΔCt=ΔCttreated−ΔCtcontrol, ΔCt=Cttarget−CtPpia). […]
(Quantitative PCR measures a nucleic acid by following its amplification.)

In experiment [2] the test system is CREB, BDNF, PSD95. Description: mRNA of CREB, BDNF, PSD95 in brains of chronically treated WT mice. The experiment is classed as in vivo. As to conditions: brains from WT mice treated chronically. As to the method: The impact of Aftin-5 on gene expression of different biomarkers was determined by measuring mRNA levels of selected BDNF, CREB, PS95, INS Receptor/IGF-1 receptor, IL-1β, IL-6 in OHSC treated chronically with Aftin-5 or in a total brain from mice exposed to Aftin-5 at either 8 or 30 mg/Kg. Total RNA was extracted with TRIzol@ reagent and purified on RNeasy® minikit columns (Qiagen, Courtaboeuf, France). Briefly, cells were lysed with 0.5 mL of TRIzol@ reagent by pipetting. After addition of 100 μL of chloroform, mixtures were centrifuged at 10000 g for 15 min at 4° C., supernatants mixed with 600 μL of 70% ethanol and loaded onto RNeasy® columns. Total RNA was washed and eluted with RNase-free water according to manufacturer's protocol and stored at −80° C. RNA concentration was measured spectrophotometrically at 260 nm in a NanoDrop 2000c (Thermo Scientific, Villebon-sur-Yvette, France) (sample A260 nm/A280 nm ratios over 1.8 indicated reduced genomic DNA contamination). cDNAs were synthesized from 0.5 μg of total RNA with RT^2 First Strand kit (Qiagen, Courtaboeuf, France) according to the manufacturer's protocol and stored at −80° C. […] Threshold cycles (Ct) of target gene and cyclophilin A (Ppia−control housekeeping gene) were recorded and gene expression was calculated as 2^−ΔΔCt(ΔΔCt=ΔCttreated−ΔCtcontrol, ΔCt=Cttarget−CtPpia). […]

Experiment [3] has as its system CREB. In words: CREB mRNA in OHSC (RT-qPCR). Conditions: OHSCs from WT mice, 50 μM, 10 days. The experiment is classed as cell-based. As for the experimental part: (§1) FIG. 15. Plots illustrating the effect of Aftin-5 on relative mRNA expression levels of Long Term Potentialisation (LTP) biomarkers, i.e CREB (A), PSD95 (B) and BDNF (C) in C57B16J OHSC mice treated chronically with Aftin-5. OHSC culture media of OHSC were replaced by incubation medium containing Aftin-5 (50 μM; A50) or vehicle (0.1% DMSO; Veh). 10 days later, total mRNA in lysate was isolated and purified, cDNAs were then synthesized from […] of total mRNA. cDNAs were amplified by quantitative RT-PCR and the relative expression of specific genes was normalized to the housekeeping gene HPRT1 (2^—ΔCt). […] Data expressed as means+/−SEM from q=3 independent experiments with n=4-6 inserts/condition and 10 slices/insert. […]
(§2) The impact of Aftin-5 on gene expression of different biomarkers was determined by measuring mRNA levels of selected BDNF, CREB, PS95, INS Receptor/IGF-1 receptor, IL-1β, IL-6 in OHSC treated chronically with Aftin-5 or in a total brain from mice exposed to Aftin-5 at either 8 or 30 mg/Kg. […] RNA concentration was measured spectrophotometrically at 260 nm in a NanoDrop 2000c (Thermo Scientific, Villebon-sur-Yvette, France) (sample A260 nm/A280 nm ratios over 1.8 indicated reduced genomic DNA contamination). cDNAs were synthesized from 0.5 μg of total RNA with RT^2 First Strand kit (Qiagen, Courtaboeuf, France) according to the manufacturer's protocol and stored at −80° C. […]

In experiment [4] the test system is short-term memory (working memory). Description: Y-maze spontaneous alternation test. Conditions: WT mice, 8 mg/kg subcutaneous, 28 days. The experiment is classed as in vivo, C57Bl/6J mice. As for the experimental part: FIG. 13. Plots illustrating the effect of Aftin-5 on short-term memory (working memory) in Y maze. C57B1/6J mice were exposed sub-cutaneously to Aftin-5 at 8 mg/kg (A8) or vehicle (DMSO/PEG; Veh) during 28 days through an Alzet pump. 3-4 weeks later, cognitive abilities were assessed by the means of the total number of arm entries (A) and the percentage of alternation (B). Mann-Whitney tests were performed and **p<0.01 indicates significant differences between Aftin-5 and control conditions. Data expressed as means+/−SEM with n=15 mice/condition. The spontaneous alternation test (Y maze) is a test to evaluate the short-term memory (working memory) of the animal. This test is carried out in a Y-maze with arms customized by different forms; squares (A), triangles (B) and lines (C). The mouse is placed in one of the arms for 8 min. In this test, the mouse is free to explore spontaneously the three arms of the Y-maze (FIG. 1). During the session, the number of entries of each arm of the Y-maze is counted. At the end of the session, the number of possibility (number of total entries in the arms) and the number of spontaneous alternation are calculated. An alternation is defined by consecutive entries in the three different arms (A-B-C). A mouse with a normal phenotype will tend to explore the novelty. […]

Experiment [5] has as its system PSD95. Description: PSD95 mRNA in OHSC (RT-qPCR). The experiment is classed as cell-based. Conditions: OHSCs from WT mice, 50 μM, 10 days. As to the method:
as §1, §2

The structures appear in SMILES notation.

Take `CC[C@H](CO)Nc1nc(N(C)c2ccccc2)c2ncn(C(C)C)c2n1` [Aftin-5]: the “TNF-α mRNA synthesis” value in experiment [1] is recorded as “no changes”. Moreover, in experiment [2], the “mRNA for CREB, BDNF as well as for PSD95 in brain” value was “high mRNA”. Moreover, the “CREB mRNA” value in experiment [3] was “transcriptional upregulation”. For the same compound, in experiment [4], the “spatial memory in Y-maze” value is given as “improved spatial memory”. Also, the “PSD95 mRNA” value in experiment [5] is listed as “transcriptional upregulation”.

Source of the values: patent US11472807B2, “Purine derivatives for use as medicament and for use in treating neurodegenerative or neuro-inflammatory disorders” (COMMISSARIAT À L'ENERGIE ATOMIQUE ET AUX ENERGIES …, priority 2017, dated 2022).
